Results on 7 compounds are retold here after paper PMC10825690, “Crystal structures of human immune protein FIBCD1 suggest an extended binding site compatible with recognition of pathogen-associated carbohydrate motifs” (The Journal of Biological Chemistry, 2023).

By IC50 is commonly meant the concentration that gives 50% inhibition. A low value points to greater potency in that assay. As a reminder, the Kd is the equilibrium constant for the complex coming apart. Lower therefore signals higher affinity.

Numbering of substitutions follows the chain as printed.

For test [1], the target named is T1, mutant variant H396A FIBCD1-FReD (Homo sapiens, UniProt Q8N539, H396A).
T1 construct: FIBCD1-FReD (residues 236–461) was expressed in Sf9 insect cells; IgG K signal peptide (N); made in house; host or cells: CHO cells (ExpiCHO system, pcDNA3.1+)
T1 sequence (Q8N539 236-461 H396A): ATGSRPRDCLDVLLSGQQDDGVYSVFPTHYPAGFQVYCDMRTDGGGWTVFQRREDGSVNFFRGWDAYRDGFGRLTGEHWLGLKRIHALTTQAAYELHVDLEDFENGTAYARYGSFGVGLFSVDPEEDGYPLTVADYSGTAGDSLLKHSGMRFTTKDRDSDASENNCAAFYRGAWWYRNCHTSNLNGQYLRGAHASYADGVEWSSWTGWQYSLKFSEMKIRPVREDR
The test can be described thus: Repeated ELISA inhibition of H396A FIBCD1-FReD (CHO expressed) binding to AcBSA. The settings on record: ELISA repeated measurements, mean ± SD, five experiments. The source says:
(§1) For S1(2), the mutation K381L was chosen to block this site. In the crystal structure of the homologous protein ficolin-3 the overall topology of this pocket is similar but the Leu381 side chain extends into the site and a similar orientation in FIBCD1 would preclude the ligand binding in this pocket (see Fig. S5). […] For the S1(3) site, the mutation H396A was used. There is no significant difference in affinity for H396A compared with wildtype for each GlcNAc ligand investigated (see Fig. S6C).
(§2) The cloning, expression, and purification of FIBCD1-FReD have been described in detail ([1]). Briefly, for the protein used for the ligand-bound crystal structures, the initial enzyme-linked immunosorbent inhibition assay (ELISA) and the MST affinity assay, FIBCD1-FReD (residues 236–461) was expressed in Sf9 insect cells using the pNT-Bac vector expression system. The recombinant FIBCD1-FReD variants used for the native crystal structure and for the repeated measurements of (GlcNAc)n n = 1, 2, 3 inhibition by ELISA, the same fragments of FIBCD1-FReD (wildtype, H396A, and K381L) were expressed in Chinese hamster ovary (CHO) cells using the ExpiCHO expression system (ThermoFisher Scientific) with FIBCD1-FReD (including the IgG K signal peptide for secretion) cloned into the pcDNA3.1+ plasmid (Genscript). Purification of the FIBCD1-FReD variants, regardless of the expression system, was achieved through affinity chromatography using acetylated Toyopearl AF-Amino-650M resin (Tosoh) followed by ion-exchange chromatography using a Resource Q ion-exchange column (GE Healthcare) as outlined in Schlosser et al. (Ref ([1])).
(§3) The specificity of the binding of recombinant FIBCD1-FReD, expressed in insect cells, to AcBSA was assayed in technical duplicates by inhibition with acetylated compounds, including GlcNAc (Sigma-Aldrich) and three N-acetylchitooligosaccharides of defined length ((GlcNAc)3, (GlcNAc)5, and (GlcNAc)11) and acetylation (66%), which were kindly provided by Professor Morten Sølie (Norwegian University of Life Sciences). […]

In test [2] the target is T2, wildtype (WT) FIBCD1-FReD (Homo sapiens, UniProt Q8N539).
T2 construct: FIBCD1-FReD (residues 236–461) was expressed in Sf9 insect cells; IgG K signal peptide (N); made in house; host or cells: CHO cells (ExpiCHO system, pcDNA3.1+)
T2 sequence (Q8N539 236-461): T1 sequence (Q8N539 236-461 H396A) with A161H
The test can be described thus: Repeated ELISA inhibition of wildtype FIBCD1-FReD (CHO expressed) binding to AcBSA. Particulars: ELISA repeated measurements, mean ± SD, eight experiments.
From the text: To study the finer details of short oligomer recognition, binding of GlcNAc, (GlcNAc)2, and (GlcNAc)3 was further investigated by ELISA.
as §2
as §3, with “Sciences). The monoclonal antibodies used in the study here were generated in-house at the University of Southern Denmark and chosen from a large series of monoclonal antibodies raised against the FReD domain (human) in FIBCD1-deficient mice—details for the production are given in ([3]).” for “Sciences).”
(ELISA stands for enzyme-linked immunosorbent assay.)

Test [3] has as its target T3, FIBCD1-FReD (Homo sapiens, UniProt Q8N539).
T3 construct: FIBCD1-FReD (residues 236–461) was expressed in Sf9 insect cells; made in house; host or cells: Sf9 insect cells (pNT-Bac vector)
T3 sequence (Q8N539 236-461): T1 sequence (Q8N539 236-461 H396A) with A161H
The experiment in a line: ELISA inhibition of FIBCD1-FReD (insect cell expressed) binding to immobilized AcBSA. The settings on record: insect cell expressed FIBCD1-FReD 50 ng/ml, 5 mM CaCl2, mean ± SD, three to four experiments. As for the experimental part: (§4) The binding of FIBCD1-FReD with GlcNAc, (GlcNAc)3, and longer N-acetylchitooligosaccharides of defined length ((GlcNAc)5 and (GlcNAc)11) was investigated by ELISA. The relative affinity for these carbohydrates was assessed by inhibiting the binding of FIBCD1 to immobilized acetylated bovine serum albumin (AcBSA) in microtiter plates. […] The ligand-binding properties of FIBCD1-FReD were further evaluated using microscale thermophoresis (MST) measurements.
as §2, §3

Test [4] deals with T3, FIBCD1-FReD. The experiment in a line: Microscale thermophoresis (MST) affinity assay. Type of test: binding. The settings on record: for Kd: labeled FIBCD1-FReD 30 nM, TBS/Tw 5 mM CaCl2, 25 °C, mean ± SD, three to four measurements. On the procedure: as §4, §2
The affinity between recombinant FIBCD1-FReD and the acetylated sugars GlcNAc, (GlcNAc)5 and ManNAc as well as AcBSA was determined by MST. FIBCD1-FReD expressed by insect cells was labeled using the Monolith NT Protein Labeling Kit RED-NHS (NanoTemper Technologies) according to the manufacturer’s instructions. Removal of unreacted dye was performed with the supplied columns equilibrated in TBS containing 5 mM CaCl2. Labeled FIBCD1-FReD was diluted in assay buffer (TBS/Tw containing 5 mM CaCl2) and used at a constant concentration of 30 nM throughout the experiments, whereas the putative ligands were titrated in 2-fold dilutions, ranging from 0.6 nM to 10 μM (AcBSA), 100 μM to 200 mM (GlcNAc), 50 μM to 100 mM (GlcNAc)5, and 250 μM to 500 mM (ManNAc). For the measurements, all ligands were incubated with labeled FIBCD1-FReD for 20 min at RT (21–22 °C) before being loaded into standard capillaries (NanoTemper Technologies). […] Data from three to four independently pipetted experiments were analyzed using the NanoTemper Analysis 1.2.20 software and used to fit the data for determination of the Kd values.
(MST reads how a fluorescent partner responds to local heating, with and without ligand.)

Test [5] relates to FIBCD1. Also noted: method as in PMID 19710473. Particulars: comparison with GlcNAc; cited from earlier work.
Test [6] has as its target T4, FIBCD1-FReD mutant variant K381L (Homo sapiens, UniProt Q8N539, K381L).
T4 construct: FIBCD1-FReD (residues 236–461) was expressed in Sf9 insect cells; IgG K signal peptide (N); made in house; host or cells: CHO cells (ExpiCHO system, pcDNA3.1+)
T4 sequence (Q8N539 236-461 K381L): T1 sequence (Q8N539 236-461 H396A) with K146L, A161H
The test can be described thus: ELISA binding of K381L FIBCD1-FReD to AcBSA. Particulars: two different detection antibodies (clones 11-14-25 and 11-14-13).
From the text: as §1
as §3, with “Sciences). The monoclonal antibodies used in the study here were generated in-house at the University of Southern Denmark and chosen from a large series of monoclonal antibodies raised against the FReD domain (human) in FIBCD1-deficient mice—details for the production are given in ([3]).” for “Sciences).”

As for `CC(=O)N[C@H]1[C@H](O[C@H]2[C@H](O)[C@@H](NC(C)=O)C(O)O[C@@H]2CO)O[C@H](CO)[C@@H](O)[C@@H]1O` (stereo partly drawn) [(GlcNAc)2, N,N′-diacetylchitobiose], the IC50 in test [1] turned out to be 1.4 ± 0.11 mM; in test [2], 1.4 ± 0.16 mM.

As for `CC(=O)N[C@H]1[C@H](O[C@H]2[C@H](O)[C@@H](NC(C)=O)C(O)O[C@@H]2CO)O[C@H](CO)[C@@H](O[C@@H]2O[C@H](CO)[C@@H](O)[C@H](O)[C@H]2NC(C)=O)[C@@H]1O` (stereo partly drawn) [(GlcNAc)3], the IC50 in test [1] came to 1.2 ± 0.14 mM; in test [3], 0.5 ± 0.06 mM; in test [2], 1.1 ± 0.1 mM.

With `CC(=O)N[C@@H]1[C@@H](O)[C@H](O)[C@@H](CO)O[C@H]1O` [GlcNAc, N-acetylglucosamine], the figures for the IC50 in test [1], in test [3] and in test [2] were 2.4 ± 0.22 mM, 2 ± 0.22 mM and 2.2 ± 0.19 mM, respectively. The same compound returned a Kd in test [4] of 27 ± 9 mM.

In turn, `CC(=O)N[C@@H]1C(O)O[C@H](CO)[C@@H](O)[C@@H]1O` (stereo partly drawn) [ManNAc, N-acetyl-D-mannosamine] came in with a Kd in test [4] of 31 ± 8 mM.

`CC(=O)N[C@H]1[C@H]([C@H](O)[C@H](O)CO)OC(O)(C(=O)O)C[C@@H]1O` (stereo partly drawn) [Neu5Ac, N-acetylneuraminic acid]: the “IC50 relative to GlcNAc” value in test [5] was “lower IC50 than GlcNAc”.

(GlcNAc)5 came in with an IC50 in test [3] of 0.1 ± 0.03 mM. The “fold difference in affinity (Kd) between GlcNAc and (GlcNAc)5” value in test [4] (MST, GlcNAc Kd versus (GlcNAc)5 Kd) was 23 fold. For the same compound, the affinity in test [4], expressed as Kd, was 1.2 ± 0.4 mM.

Take “AcBSA: acetylated bovine serum albumin, poly-acetylated model ligand”: in test [6], the “binding of K381L FIBCD1-FReD to AcBSA in ELISA” value is recorded as “did not bind”.
